Values quoted from earlier work as cited in patent publication US20210045998A1 (priority 2018, published 2021).

Details: in vivo

CC1=CC[C@H]2C[C@@H]1C2(C)C [α-Pinene, (1S,5S)-2,6,6-Trimethylbicyclo[3.1.1]hept-2-ene]
human pulmonary uptake: 60%
